Data published in patent publication US9598434B2, “Benzazepine compound” (Astellas Pharma Inc., priority 2010, dated 2017).
Read-outs that look alike come from different tables or passages of the source.

Key:
human 5-HT2C receptor = target: T1, human 5-HT2C receptor (Homo sapiens, UniProt P28335); test: Evaluation of 5-HT2C receptor agonist activity (intracellular calcium increase, FLIPR, CHO cells stably expressing the receptor); assay type: cell-based; details: for Emax: CHO, read-out: 5-HT2C agonist activity Emax
T1 construct: expressed in transfected cells
T1 sequence (P28335 33-458): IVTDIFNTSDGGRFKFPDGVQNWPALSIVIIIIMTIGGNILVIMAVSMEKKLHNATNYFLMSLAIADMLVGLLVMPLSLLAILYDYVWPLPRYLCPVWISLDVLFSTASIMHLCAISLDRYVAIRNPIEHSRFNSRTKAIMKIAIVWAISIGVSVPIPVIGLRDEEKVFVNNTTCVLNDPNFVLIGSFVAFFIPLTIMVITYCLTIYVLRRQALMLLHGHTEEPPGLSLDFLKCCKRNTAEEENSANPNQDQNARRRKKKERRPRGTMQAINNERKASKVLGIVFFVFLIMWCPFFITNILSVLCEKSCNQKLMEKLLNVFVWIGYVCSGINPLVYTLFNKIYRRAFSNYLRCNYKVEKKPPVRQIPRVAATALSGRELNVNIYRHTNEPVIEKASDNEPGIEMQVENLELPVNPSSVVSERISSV
Procedure: The agonist activity of the compound of the formula (I) on the 5-HT2C receptor was confirmed by the method shown below.
The human 5-HT2C receptor agonist activity was evaluated by measuring the increase of the ligand-dependent intracellular calcium concentration. CHO cells which stably expressing a human 5-HT2C receptor were used. The receptor-expressing cells were prepared by transfecting the genes of the human 5-HT2C receptor (Accession numbers: AF498983 (5-HT2C)) into CHO cells (dihydrofolic acid-deficient strain, DS Pharma Biomedical Co., Ltd.)) using a pEF-BOS vector (Nucleic Acids Research, vol. 18, No. 17). After transcription, the 5-HT2C is known to be subjected to RNA editing to cause differences in three kinds of amino acids, resulting in fourteen receptor isoforms. Among them, cells stably expressing an INI type of 5-HT2C receptor which had not been subjected to editing were used. Cells used for evaluation were cultured in a 10% fetal bovine serum (FBS)-containing medium (trade name: α-MEM, Invitrogen) at 37° C. and 5% carbon dioxide. On the day before the evaluation, the cells were suspended in a serum-free medium (trade name: CD-CHO, Invitrogen) containing 8 mM L-glutamine (trade name: L-glutamine 200 mM, Invitrogen, added to the medium at a final concentration of 8 mM) and dispensed into a 96-well poly-D-lysine-coated plate (trade name: Biocoat PDL96W Black/Clear, Japan Becton, Dickinson and Company)) at 4×10^4 cells/well and cultured at 37° C. and 5% carbon dioxide overnight. A solution including a washing solution (mixture of Hank's Balanced Salt Solution (HBSS)-sodium hydroxide (NaOH), 20 mM 2-[4-(2-hydroxyethyl)-1-piperazinyl]ethanesulfonic acid (HEPES)-sodium hydroxide (NaOH), 2.5 mM probenecid, and 0.1% bovine serum albumin (BSA)), and a 4 μM fluorescent reagent (trade name: Fluo4-AM, Dojindo Co., Ltd.) was used as a loading buffer and the medium of the 96-well plate which had been cultured overnight was replaced with a loading buffer. After leaving to stand (with light-shielding) at room temperature for 3 hours, the cells were washed with a plate washer (trade name: ELx405, BioTek Instruments, Inc.) in which a washing solution had been set up. The plates of the washed cells were set up in a system for measuring a calcium (Ca) concentration in a cell (trade name: FLIPR, Molecular Devices, Inc.). In this device, a test compound that had been dissolved in dimethyl sulfoxide and diluted in the washing solution at a predetermined concentration was added and set up to measure a change in the Ca concentrations in a cell. The difference between a maximum value and a minimum value in the change of the intracellular Ca concentration was determined and kept as measurement data.
Taking the maximum reaction of the 5-HT (agonist action with addition of 5-HT 10 μM) as 100% and the reaction of a solvent alone as 0%, the efficacy (Emax (%)) and potency (EC50 (nM)) of the present invention compound to the maximum reaction of the 5-HT were calculated with a logistic regression method.

[1] = system: Hartley female guinea pigs; test: Measurement of external urethral sphincter electromyography; assay type: in vivo, guinea pig; details: Cavia porcellus, read-out: external urethral sphincter electromyography activity
Text: The activating action of the compound of the formula (I) on the urethral sphincter electromyography was confirmed with the method shown below.
Hartley female guinea pigs with a body weight of 250 to 350 g were anesthetized with urethane (Sigma). The guinea pigs were fixed in a supine position and catheters (PE-50; Clay Adams) for administration of test compounds were inserted into the jugular vein. Further, a catheters (PE-160; Clay Adams), for an infusion of physiological saline into bladder and measurement of the intravesical pressure, were inserted through an incision into the dome of the bladder. Further, in order to measure the external urethral sphincter electromyography, two electrodes were inserted into both the left and right sides of the urethral opening to the urethral sphincter. The electrodes for measuring base voltages were placed under the skin of the hind part. The bladder catheter was branched over a three-way stopcock, and one was connected with a 50 mL syringe (Terumo) fixed to an infusion pump (Terumo). The other was connected to a pressure transducer (DX-100; Nihon Kohden Corporation) to transfer the signal of the transducer through an amplifier (AP-630G; Nihon Kohden Corporation) and a data acquisition system (PowerLab; AD Instruments) to a computer and record on a hard disk. The electrodes for electromyography measurement were connected to a control unit (JB-101J; Nihon Kohden Corporation) to transfer the signal through an amplifier (AP-651J; Nihon Kohden Corporation) and a data acquisition system (PowerLab; AD Instruments) to a computer and record on a hard disk. Further, the data were analyzed on the computer using a software (Chart; AD Instruments). […] The electromyography activity was analyzed by taking the lowest potential amplitude as a standard during the stabilization period and using the firing frequency over the standard amplitude as an indicator. At internals between the respective urinations (urine filling phase), the activity of the urethral sphincter electromyography was analyzed and its average value was calculated. After the stabilization period, the solvent and the test compound were administered at an increased dose at an interval of 40 minutes through the catheter placed into the jugular vein. The urethral sphincter electromyography activity after the administration of the solvent was taken as 100% and the urethral sphincter electromyography activity after the administration of the test compound was denoted as a percentage (%) of the electromyography activity after the administration of the solvent.

[2] = CHO cells stably expressing INI type human 5-HT2C receptor, intracellular Ca increase, logistic regression, read-out: 5-HT2C agonist activity EC50
[3] = intravenous administration at 3 mg/kg, urethane-anesthetized guinea pigs, activity after solvent taken as 100%

Compound | EC50 (human 5-HT2C receptor; [2]) [nM] | Emax (human 5-HT2C receptor) [%] | response vs control in vivo at 3 mg/kg [1, 3] [%] | melting point [°C] | EC50 (human 5-HT2C receptor) [nM] | response vs control in vivo at 3 mg/kg ([1]; iv) [%]
CCO[C@H](C)CN1CCOc2cc3c(c(C4CC4)c21)CCNCC3.O=C(O)/C=C/C(=O)O [Example 315] | 2.8 | 108 | ≥ 200 | 157 to 160 |  | 
Fc1ccc(Cl)cc1CN1CCOc2cc3c(c(C4CC4)c21)CCNCC3.O=C(O)/C=C/C(=O)O [Example 290] | 3.8 | 93 | ≥ 200 | 165 to 168 |  | 
Cc1cccc(CN2CCOc3cc4c(c(C5CC5)c32)CCNCC4)c1.O=C(O)/C=C/C(=O)O [Example 277] | 2.3 | 95 | ≥ 200 | 192 to 195 |  | 
O=C(O)/C=C/C(=O)O.c1c2c(c(C3CC3)c3c1OCCN3CC1CCCOC1)CCNCC2 (centres unmarked) [Example 263] | 2.8 | 96 | ≥ 200 | 186 to 189 |  | 
COCc1cccc(CN2CCOc3cc4c(c(C5CC5)c32)CCNCC4)c1.O=C(O)/C=C/C(=O)O [Example 288] | 0.64 | 90 | ≥ 200 | 190 to 193 |  | 
Fc1cc(F)cc(CN2CCOc3cc4c(c(C5CC5)c32)CCNCC4)c1.O=C(O)/C=C/C(=O)O [Example 313] | 4.2 | 97 | ≥ 200 | 191 to 194 |  | 
FCCCN1CCOc2cc3c(c(C4CC4)c21)CCNCC3.O=C(O)/C=C/C(=O)O [Example 141] |  | 100 |  | 144 to 147 | 0.36 | ≥ 200
CCOCCN1CCOc2cc3c(c(C4CC4)c21)CCNCC3.O=C(O)/C=C/C(=O)O [Example 104] | 1.1 | 107 | ≥ 200 | 140 to 145 |  | 
c1c2c(c(C3CC3)c3c1OCCN3C[C@@H]1CCCO1)CCNCC2 [Example 215] | 1 | 96 |  | 154 to 156 |  | ≥ 200
COCCCN1CCOc2cc3c(c(C4CC4)c21)CCNCC3.O=C(O)/C=C/C(=O)O [Example 106] | 1.1 | 112 | ≥ 200 | 169 to 171 |  | 
N#Cc1cc(F)c(OCCN2CCOc3cc4c(c(C5CC5)c32)CCNCC4)c(F)c1 [Example 297] | 0.71 | 96 | ≥ 200 |  |  | 
Fc1ccccc1CN1CCOc2cc3c(c(C4CC4)c21)CCNCC3.O=C(O)/C=C/C(=O)O [Example 265] | 1.3 | 97 | ≥ 200 | 133 to 136 |  | 
c1ccc(OCCN2CCOc3cc4c(c(C5CC5)c32)CCNCC4)cc1 [Example 268] | 0.92 | 99 | ≥ 200 |  |  | 
O=C(O)/C=C/C(=O)O.c1ccc2c(c1)OCC(CN1CCOc3cc4c(c(C5CC5)c31)CCNCC4)O2 (centres unmarked) [Example 267] | 0.51 | 99 | ≥ 200 | 179 to 182 |  | 
COCCN1c2c(cc3c(c2C2CC2)CCNCC3)OC[C@@H]1C [Example 292] | 0.65 | 93 | ≥ 200 |  |  | 
CO[C@H](C)CN1CCOc2cc3c(c(C4CC4)c21)CCNCC3.O=C(O)/C=C/C(=O)O [Example 243] | 0.53 | 96 | ≥ 200 | 133 to 136 |  | 
O=C(O)/C=C/C(=O)O.c1cc2c(cc1CN1CCOc3cc4c(c(C5CC5)c31)CCNCC4)OCCO2 [Example 291] | 1.2 | 93 | ≥ 200 | 165 to 168 |  | 
Cc1ccccc1CN1CCOc2cc3c(c(C4CC4)c21)CCNCC3.O=C(O)/C=C/C(=O)O [Example 276] | 6.4 | 104 | ≥ 200 | 163 to 166 |  | 
COCCCN1CCOc2cc3c(cc21)CCNCC3.O=C(O)/C=C/C(=O)O [Example 59] | 7.1 | 108 | ≥ 200 | 141 to 145 |  | 
Clc1cccc(CN2CCOc3cc4c(c(C5CC5)c32)CCNCC4)c1.O=C(O)CCC(=O)O [Example 258] | 1.9 | 97 | ≥ 200 | 139 to 141 |  | 
